According to ChEMBL document CHEMBL5046240, “Design, synthesis, and evaluation of potent RIPK1 inhibitors with in vivo anti-inflammatory activity” (Eur J Med Chem, 2022):
pEC50: −log10 of the molar value.

Experiments:
[1] = system: HT-29; assay: Anti-necroptic activity in human HT-29 cells assessed as TNFalpha/Z-VAD (TSZ) induced necroptosis by measuring cell viability preincubated for 1 hr followed by TSZ addition ans measured after 24 hrs by celltiter-glo luminescent cell viability assay; assay type: functional, cell-based
[2] = Metabolic stability in human liver microsomes assessed as half life by LC-MS/MS analysis; assay type: ADME
[3] = system: L929; assay: Anti-necroptic activity in mouse L929 cells assessed as TNFalpha/Z-VAD (TSZ) induced necroptosis by measuring cell viability preincubated for 1 hr followed by TSZ addition and measured after 24 hrs by celltiter-glo luminescent cell viability assay; assay type: functional, cell-based

Row | Structure (SMILES) | pEC50 [1] | half-life [2] | pEC50 [3]
1 | Cc1ncc(-c2ccc3nc(N)sc3c2)cc1NC(=O)OC1CCCCC1 | 7.00 |  | 
2 | CC(=O)Nc1nc2ncc(-c3cnc(C)c(NC(=O)OC4CCCCC4)c3)cc2s1 | < 6.00 |  | 
3 | CC(=O)Nc1nc2ccc(-c3cnc(C)c(NC(=O)OC4CCCCC4)c3)cn2n1 | < 6.00 |  | 
4 | Cc1ncc(-c2ccc3nc(NC(=O)C4CC4)sc3c2)cc1NC(=O)OC1CCC(F)(F)CC1 | 8.21 | 43 min | 8.70
5 | Cc1ncc(-c2ccc3nc(NC(=O)C4CC4)sc3c2)cc1NC(=O)OC1CC(C)OC(C)C1 (stereo not drawn) | 8.32 | 12 min | 8.28
6 | Cc1ncc(-c2ccc3nc(NC(=O)c4ccccc4)sc3c2)cc1NC(=O)OC1CCCCC1 | 7.28 |  | 
7 | Cc1ncc(-c2ccc3nc(NC(=O)C4CC4)sc3c2)cc1NC(=O)OC1CCCCC1 | 8.80 | 6.5 min | 8.54
8 | CC(=O)Nc1nc2ccc(-c3cnc(C#N)c(NC(=O)OC4CCCCC4)c3)cc2s1 | 6.27 |  | 
9 | CC(=O)Nc1nc2cc(-c3cnc(C)c(NC(=O)OC4CCCCC4)c3)ccn2n1 | < 6.00 |  | 
10 | CC(=O)Nc1nc2ccc(-c3cnc(C)c(NC(=O)OC4CCCCC4)c3)cc2s1 | 7.64 |  | 7.89
11 | Cc1ncc(-c2ccc3nc(NC(=O)C4CC4)sc3c2)cc1NC(=O)OC1CCC1 | 7.80 |  | 
12 | CC(=O)Nc1nc2ccc(-c3cc(NC(=O)OC4CCCCC4)c(C)nn3)cc2s1 | 6.69 |  | 
13 | Cc1ncc(-c2ccc3nc(NS(C)(=O)=O)sc3c2)cc1NC(=O)OC1CCCCC1 | < 6.00 |  | 
14 | CNc1nc2ccc(-c3cnc(C)c(NC(=O)OC4CCCCC4)c3)cc2s1 | < 6.00 |  | 
15 | CCc1ncc(-c2ccc3nc(NC(C)=O)sc3c2)cc1NC(=O)OC1CCCCC1 | 7.13 |  | 6.82
16 | Cc1ncc(-c2ccc3nc(NC(=O)C4CC4)sc3c2)cc1NC(=O)OC1CCCOC1 (stereo not drawn) | 7.57 | 15 min | 
17 | CNC(=O)Nc1nc2ccc(-c3cnc(C)c(NC(=O)OC4CCCCC4)c3)cc2s1 | 8.15 |  | 
18 | COc1ncc(-c2ccc3nc(NC(C)=O)sc3c2)cc1NC(=O)OC1CCCCC1 | 6.74 |  | 
19 | CCOC(=O)Nc1nc2ccc(-c3cnc(C)c(NC(=O)OC4CCCCC4)c3)cc2s1 | 7.28 |  | 
20 | Cc1ncc(-c2ccc3nc(NC(=O)C4CC4)sc3c2)cc1NC(=O)OC1CCCC1 | 8.05 | 5.7 min | 8.08
21 | CC(=O)Nc1nc2ccc(-c3cc(NC(=O)OC4CCCCC4)c(C)cn3)cc2s1 | 7.14 |  | 7.82
22 | CC(=O)Nc1nc2cnc(-c3cnc(C)c(NC(=O)OC4CCCCC4)c3)cc2s1 | < 6.00 |  | 
23 | CCC(=O)Nc1nc2ccc(-c3cnc(C)c(NC(=O)OC4CCCCC4)c3)cc2s1 | 7.42 |  | 
24 | CC(=O)Nc1nc2ccc(-c3ccc(C)c(NC(=O)OC4CCCCC4)n3)cc2s1 | 6.19 |  | 
25 | CCC(C)OC(=O)Nc1cc(-c2ccc3nc(NC(=O)C4CC4)sc3c2)cnc1C (stereo not drawn) | 7.77 | 14 min | 
26 | CC(=O)Nc1cn2nc(-c3cnc(C)c(NC(=O)OC4CCCCC4)c3)ccc2n1 | 7.01 |  | 
27 | CC(=O)Nc1cn2cc(-c3cnc(C)c(NC(=O)OC4CCCCC4)c3)ccc2n1 | 7.01 |  | 7.35
28 | CC(=O)Nc1nc2ccc(-c3cnc(C)c(NC(=O)OC4CCCCC4)c3)nc2s1 | 6.89 |  | 7.52
